Here are results for eleven compounds from patent publication US20250026741A1, “INHIBITORS OF THE ONCOGENIC SHP2 PHOSPHATASE AND USES THEREOF” (Sanford Burnham Prebys Medical Discovery Institute, priority 2021, published 2025).

Each structure is given as a SMILES string. Where two headings read alike, the source gives them in different places.

Test [1] addresses SHP2 catalytic domain (SHP2cat; residues 248-527) (Homo sapiens (Human), UniProt Q06124). Briefly: DiFMUP fluorescence intensity phosphatase inhibition assay, SHP2cat. In kind it is biochemical. The source says:
(§1) To test the synthesized compounds for their potential to inhibit SHP2 activity, a fluorescence intensity-based assay using 6,8-difluoro-4-methylumbelliferyl phosphate (DiFMUP) as the substrate was adapted for three recombinant SHP2 constructs: 1) the SHP2 catalytic domain (SHP2cat; residues 248-527), 2) the full-length SHP2-E76K oncogenic mutant, and 3) the full-length SHP2 wild-type (SHP2-WT). The recombinant SHP2 proteins were expressed and purified. A dually phosphorylated peptide derived from the insulin receptor substrate 1 (IRS-1) served as a surrogate binding protein and was used to activate SHP2-WT. […] Michaelis-Menten experiments to determine the DiFMUP Michaelis-Menten constant (Kmn) for each SHP2 construct were performed and yielded the following values: SHP2-WT, Km=60 μM; SHP2-E76K, Km=20 μM; SHP2cat, Km=20 μM. Relative maximum rates (Vmax) of the DiFMUP reactions were as follows: SHP2-WT, Vmax=871 AFU/min; SHP2-E76K, Vmax, =2730 AFU/min; SHP2cat, Vmax=2912 AFU/min. IC50 values for each compound were determined from initial rates in 10-point dose-response assays using DiFMUP at a concentration corresponding to its Km value for the respective SHP2 construct.
(§2) SHP2 inhibitors were tested at room temperature (RT) in a 384-well plate format standard phosphatase fluorescence intensity assay using DiFMUP (Invitrogen/Thermo Fisher Scientific, Carlsbad, CA) as a substrate and a total reaction volume of 25 μL. SHP2 inhibitors or vehicle (DMSO) were spotted in triplicate into a black Greiner FLUOTRAC™ 200 384-well microplate (#781076, Greiner) for a 10-point dose-response assay using an Echo®555 Liquid Handler (Labcyte, Inc., San Jose, CA). PTP working solutions were prepared at a 0.625 nM concentration (for a final concentration of 0.5 nM) in buffer containing 50 mM Bis-Tris pH 6.0, 50 mM NaCl, 5 mM DTT, and 0.01% Tween® 20. Prior to the assay, a dually phosphorylated insulin receptor substrate 1 (IRS-1) peptide [625 nM (500 nMfinal) (30)] was added to full-length WT SHP2 working solutions and incubated for 20 min. DiFMUP working solutions at 5× final concentration were prepared in 50 mM Bis-Tris pH 6.0, 50 mMNaCl, and 0.01% Tween 20. 20 μL of PTP working solution was dispensed into the microplate and incubated with inhibitor for 20 min at RT. […] The reaction was initiated by addition of 5 μL DiFMUP working solutions. Fluorescence intensity was measured in kinetic mode (every minute for 7 or 10 min) using a Tecan Spark® Multimode Microplate Reader (Tecan, Groedig, Austria) with an excitation wavelength of 360 nm and an emission wavelength of 460 nm. The initial rates were determined from the linear progression curves of the PTP reaction. The nonenzymatic hydrolysis of the substrate was corrected by using a control without addition of enzyme. IC50 values were calculated from the corrected initial rates by nonlinear regression using the program GraphPad Prism (GraphPad Software, Inc., San Diego, CA) Version 8. Dose-response inhibition assays of SHP2cat using the substrate OMFP were performed similarly as described above for DiFMUP. OMFP was used at a concentration corresponding to its Km value for SHP2cat (50 μM final). Fluorescence intensity was measured in kinetic mode (every minute for 10 min) using a Tecan Spark Multimode Microplate Reader with an excitation wavelength of 485 nm and an emission wavelength of 535 nm. Initial rates were determined and IC50 vales calculated as described above.

In test [2] the target is full-length SHP2-E76K oncogenic mutant (Homo sapiens (Human), UniProt Q06124, E76K). Briefly: DiFMUP fluorescence intensity phosphatase inhibition assay, SHP2-E76K. It is filed as biochemical.
Source text: as §1, §2

Test [3] deals with full-length SHP2 wild-type (SHP2-WT) (Homo sapiens (Human), UniProt Q06124). As to the kind of experiment: DiFMUP fluorescence intensity phosphatase inhibition assay, SHP2-WT activated with IRS-1 peptide. In kind it is biochemical. The following applies: DiFMUP at Km (60 μM), IRS-1 peptide activated.
Source text: as §1, §2

Test [4] deals with KYSE-520 esophageal cancer cells. As to the kind of experiment: Cell viability assay (CellTiter-Glo), KYSE-520. It is filed as cell-based. The settings on record: KYSE-520 cells, various concentrations, 3 d. The source says: (§3) Inhibition of SHP2 has been reported to inhibit the growth of cancer cells including Kasumi-1 acute myeloid leukemia (AML) and KYSE-520 esophageal cancer cells. […] Cell viability is shown as a percentage of the vehicle (DMSO) control and represents the mean±SD. B) #02 dose-response curves in cell viability assays using Kasumi-1, KYSE-520, MOLM-13, and […] cells after 3 d in culture. The percentages compared to DMSO vehicle control were curve fitted using nonlinear regression (log[inhibitor] vs. normalized response, variable slope) and represent the mean±SD. C) Cell viability of […] and MDA-MB-468 triple-negative breast cancer (TNBC) cells in the presence of various concentrations of #02 or the SHP2 allosteric inhibitor SHP099 after 5 d in culture. Cell viability is shown as a percentage of DMSO vehicle control, representing mean±SD, and curve fitted as in B). D) Colony formation assay (11 d) of […] and MDA-MB-468 TNBC cells in the presence of various concentrations of #02 or the SHP2 allosteric inhibitor SHP099. E) Phospho-ERK1/2 (p-ERK1/2) immunoblot analysis from total cell lysates of MOLM-13 AML cells treated with #02 at the indicated concentrations, or with SHP2 allosteric inhibitor RMC-4550 (RMC, 1 μM) for 3 h or 24 h. The quantitation of p-ERK1/2 levels is shown as the percentage of the DMSO (vehicle) control and represents data from three independent experiments (mean±SD). F) Viability of AML patient-derived cells in the presence of 10 μM #02 or 10 μM SHP2 allosteric inhibitor RMC-4550 after 2 d, 4 d, or 6 d in culture. Cell viability is shown as a percentage of the DMSO vehicle control and represents the mean±SD (*p<0.05; **p<0.01; ****p<0.0001; unpaired test with Welch's correction) G) Viability of MOLM-13 cells and MOLM-13-Cas9-mCherry cells with SHP2 knockout (KO) in the presence of #01, #02, and allosteric inhibitor SHP099 at various concentrations (10-point dose-response). The percentages compared to the DMSO vehicle control were curve fitted using nonlinear regression (log[inhibitor] vs. normalized response, variable slope) and represent the mean±SD. SHP2 protein levels in regular MOLM-13 cells (WT), MOLM-13-Cas9-mCherry cells (Cas9), and MOLM-13-Cas9-mCherry cells with SHP2 KO (SHP2 KO) were evaluated by immunoblot analysis using SHP2 antibodies.
(§4) Viability of AML, esophageal carcinoma, and TF-1 cells was assessed using the ATP-depletion assay CellTiter-Glo® (Promega). Cells were harvested at 1×10^6/mL to 2×10^6 cells/mL with cell numbers determined by trypan blue using the Countess Cell counter (Thermo Scientific) and resuspended in culture media. […] Luminescence was read on a Tecan Spark® Multimode Microplate Reader and data analyzed using Graph Pad Prism software.

The test system of test [5] is Kasumi-1 acute myeloid leukemia (AML) cells. Briefly: Cell viability assay (CellTiter-Glo), Kasumi-1. In kind it is cell-based. The settings on record: Kasumi-1 cells, various concentrations, 3 d.
Source text: as §3, §4
A general note: In ATP-based viability assays light output follows the ATP content of the culture.

Another test concerns the target PTP1B catalytic domain (Homo sapiens (Human), UniProt P18031). As to the kind of experiment: DiFMUP phosphatase inhibition assay, PTP1B. It is filed as biochemical. The settings on record: catalytic domain, DiFMUP at Km (25 μM). The method, then:
(§5) Selectivity is one of the biggest challenges in PTP inhibitor development. […] Similar to SHP2, we adapted a 384-well plate format DiFMUP assay for recombinant PTP1B and STEP and performed Michaelis-Menten experiments to determine DiFMUP Km values for each phosphatase. IC50 values of our inhibitors for PTP1B and STEP were determined in 10-point dose-response assays with DiFMUP used at the concentration corresponding to the respective Km value. […] Other inhibitors with good relative selectivity for SHP2 included #02 (13-fold selective over PTP1B; 73-fold selective over STEP) and #05 (5-fold selective over PTP1B; >71-fold selective over STEP).
as §2

Test [6] addresses striatal-enriched tyrosine phosphatase (STEP) catalytic domain (Homo sapiens (Human), UniProt P54829). Briefly: DiFMUP phosphatase inhibition assay, STEP. It is filed as biochemical. The following applies: catalytic domain, DiFMUP at Km (4 μM). The method, then: as §5, §2
[7] abbreviates: DiFMUP at Km (20 μM), read-out: SHP2cat IC50.
The mark [8] stands for this setting: DiFMUP at Km (20 μM), 10-point dose-response, read-out: SHP2-E76K IC50.

Sequence of full-length SHP2-E76K oncogenic mutant (Q06124 whole entry E76K): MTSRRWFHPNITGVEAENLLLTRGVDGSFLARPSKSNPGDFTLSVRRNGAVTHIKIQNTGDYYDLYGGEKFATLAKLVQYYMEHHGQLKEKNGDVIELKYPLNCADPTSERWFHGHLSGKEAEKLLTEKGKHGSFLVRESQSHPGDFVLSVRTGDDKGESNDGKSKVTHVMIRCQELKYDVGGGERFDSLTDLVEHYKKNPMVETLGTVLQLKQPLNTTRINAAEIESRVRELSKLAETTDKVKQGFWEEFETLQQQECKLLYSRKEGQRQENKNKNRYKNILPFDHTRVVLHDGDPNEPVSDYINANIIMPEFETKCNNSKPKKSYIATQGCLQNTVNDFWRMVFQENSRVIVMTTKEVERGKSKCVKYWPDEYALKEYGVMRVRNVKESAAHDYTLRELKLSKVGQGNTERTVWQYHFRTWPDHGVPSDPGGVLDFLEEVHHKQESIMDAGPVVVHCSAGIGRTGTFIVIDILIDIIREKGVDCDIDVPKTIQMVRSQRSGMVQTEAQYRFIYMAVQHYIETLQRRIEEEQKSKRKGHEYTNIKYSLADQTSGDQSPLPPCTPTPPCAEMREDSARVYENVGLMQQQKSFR
Sequence of full-length SHP2 wild-type (SHP2-WT) (Q06124 whole entry, other chains not shown): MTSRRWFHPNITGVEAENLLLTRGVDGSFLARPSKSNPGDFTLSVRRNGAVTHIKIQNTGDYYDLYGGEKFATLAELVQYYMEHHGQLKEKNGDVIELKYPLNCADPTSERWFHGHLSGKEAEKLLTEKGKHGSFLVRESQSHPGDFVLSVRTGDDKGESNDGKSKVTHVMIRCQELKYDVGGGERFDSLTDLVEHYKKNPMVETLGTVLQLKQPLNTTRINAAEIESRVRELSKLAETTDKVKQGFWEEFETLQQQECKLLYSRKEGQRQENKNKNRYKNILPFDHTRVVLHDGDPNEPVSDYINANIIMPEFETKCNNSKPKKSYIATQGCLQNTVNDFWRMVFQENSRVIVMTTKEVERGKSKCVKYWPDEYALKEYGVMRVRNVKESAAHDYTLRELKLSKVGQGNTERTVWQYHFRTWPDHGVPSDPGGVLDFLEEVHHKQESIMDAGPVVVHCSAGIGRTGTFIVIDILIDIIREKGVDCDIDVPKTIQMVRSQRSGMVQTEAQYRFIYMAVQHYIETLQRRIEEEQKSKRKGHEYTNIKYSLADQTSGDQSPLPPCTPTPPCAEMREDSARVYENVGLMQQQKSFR
Sequence of SHP2 catalytic domain (SHP2cat; residues 248-527) (Q06124 248-527): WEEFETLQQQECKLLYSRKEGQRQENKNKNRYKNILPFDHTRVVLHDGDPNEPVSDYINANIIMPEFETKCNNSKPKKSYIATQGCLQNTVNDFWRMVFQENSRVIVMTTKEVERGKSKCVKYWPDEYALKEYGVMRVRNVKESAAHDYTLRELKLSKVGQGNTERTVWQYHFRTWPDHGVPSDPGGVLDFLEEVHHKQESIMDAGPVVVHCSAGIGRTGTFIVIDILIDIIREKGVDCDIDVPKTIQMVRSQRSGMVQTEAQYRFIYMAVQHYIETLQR
Sequence of PTP1B catalytic domain (P18031 1-300): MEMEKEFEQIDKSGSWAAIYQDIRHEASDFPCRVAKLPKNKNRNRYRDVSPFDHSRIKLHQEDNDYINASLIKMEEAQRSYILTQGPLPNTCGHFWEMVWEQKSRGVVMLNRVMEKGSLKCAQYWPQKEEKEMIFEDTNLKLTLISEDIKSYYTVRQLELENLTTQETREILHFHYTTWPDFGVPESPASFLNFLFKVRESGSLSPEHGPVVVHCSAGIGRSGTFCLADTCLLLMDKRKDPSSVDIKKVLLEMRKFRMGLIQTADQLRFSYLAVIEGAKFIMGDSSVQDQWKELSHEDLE
Sequence of striatal-enriched tyrosine phosphatase (STEP) catalytic domain (P54829 280-565 limits assumed): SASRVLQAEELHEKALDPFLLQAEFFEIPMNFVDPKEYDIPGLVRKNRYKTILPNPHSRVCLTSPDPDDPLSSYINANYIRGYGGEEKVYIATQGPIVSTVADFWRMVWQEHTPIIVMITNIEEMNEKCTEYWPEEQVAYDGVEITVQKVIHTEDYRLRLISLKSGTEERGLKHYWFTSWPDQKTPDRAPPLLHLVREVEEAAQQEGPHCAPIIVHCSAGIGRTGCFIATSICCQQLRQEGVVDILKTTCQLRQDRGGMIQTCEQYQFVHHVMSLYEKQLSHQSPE

Consider `O=C(O)c1cc(-c2ccc(/C=C3\Oc4ccccc4C3=O)o2)ccc1O` [#07, (Z)-2-Hydroxy-5-(5-((3-oxobenzofuran-2(3H)-ylidene)methyl)furan-2-yl)benzoic acid], for which the IC50 in test [1] (setting [7]), in test [2] (setting [8]) and in test [3] was 1 to 20 µM each time.

As for `O=C1/C(=C/c2ccc(-c3ccc(O)c(C(=O)N4CCCCC4)c3)o2)Sc2ccccc21` [#12, (Z)-2-((5-(4-Hydroxy-3-(piperidine-1-carbonyl)phenyl)furan-2-yl)methylene)benzo[b]thiophen-3(2H)-one], the figures for the IC50 in test [1] (setting [7]), in test [2] (setting [8]) and in test [3] were 1 to 20 µM, 1 to 20 µM and 20 to 100 µM, respectively.

With `CC(C)NC(=O)c1cccc(-c2ccc(/C=C3\Sc4ccccc4C3=O)o2)c1` [#20, (Z)—N-Isopropyl-3-(5-((3-oxobenzo[b]thiophen-2(3H)-ylidene)methyl)furan-2-yl)benzamide], the “effect on cancer cell growth” value in test [4] and in test [5] was “no notable effects” in each case. Besides, the IC50 (as a rule, the point on the concentration scale where inhibition reaches its midpoint) in test [2] (setting [8]) is ≥ 100 µM; in test [2] (inactive analog used as negative control, SHP2 construct not specified, read-out: SHP2 IC50) it was > 100 µM; in test [3] it was ≥ 100 µM.

As to `O=C1CCC/C1=C\c1ccc(-c2ccc(O)c(C(=O)O)c2)o1` [#06, 2-Hydroxy-5-(5-((2-oxocyclopentylidene)methyl)furan-2-yl)benzoic acid], the 50% inhibitory concentration (IC50) is 1 to 20 µM in test [1] (setting [7]), 1 to 20 µM in test [2] (setting [8]) and 20 to 100 µM in test [3].

As to `O=C1CCC/C1=C\c1ccc(-c2ccc(O)c(C(=O)Nc3ccccc3)c2)o1` [#03, 2-Hydroxy-5-(5-((2-oxocyclopentylidene)methyl)furan-2-yl)-N-phenylbenzamide], the IC50 in test [1] (setting [7]) was 1 to 20 µM; in test [1] (catalytic domain, DiFMUP at Km, read-out: SHP2 IC50), 1.1 µM; in test [2] (setting [8]) it was 1 to 20 µM; on PTP1B catalytic domain, 1.9 µM; in test [3] it was 1 to 20 µM; in test [6], 27 µM.

As for `O=C(O)c1cc(-c2ccc(/C=C3\Cc4ccccc4C3=O)o2)ccc1O` [#09, 2-Hydroxy-5-(5-((1-oxo-1,3-dihydro-2H-inden-2-ylidene)methyl)furan-2-yl)benzoic acid], the half-maximal inhibitory concentration (IC50) in test [1] (setting [7]), in test [2] (setting [8]) and in test [3] was 1 to 20 µM in each case.

For `Nc1cccc(NC(=O)c2cc(-c3ccc(/C=C4\Sc5ccccc5C4=O)o3)ccc2O)c1` [#08, (Z)—N-(3-aminophenyl)-2-hydroxy-5-(5-((3-oxobenzo[b]thiophen-2(3H)-ylidene)methyl)furan-2-yl)benzamide], the half-inhibitory concentration (IC50) in test [1] (setting [7]), in test [2] (setting [8]) and in test [3] was 1 to 20 µM each time.

For the compound `O=C(NNc1ccccc1)c1cc(-c2ccc(/C=C3\Sc4ccccc4C3=O)o2)ccc1O` [#11, (Z)-2-Hydroxy-5-(5-((3-oxobenzo[b]thiophen-2(3H)-ylidene)methyl)furan-2-yl)-N′-phenylbenzohydrazide], the IC50 in test [1] (setting [7]), in test [2] (setting [8]) and in test [3] was 1 to 20 µM throughout.

For the compound `N#Cc1cccc(-c2ccc(/C=C/C(=O)/C=C/c3ccc(-c4cccc(C#N)c4)o3)o2)c1` [#46], the half-inhibitory concentration (IC50) in test [1] (setting [7]), in test [2] (setting [8]) and in test [3] was 1 to 20 µM in each case.

For the compound `O=C(/C=C/c1ccc(-c2cccc(C(=O)O)c2)o1)/C=C/c1ccc(-c2cccc(C(=O)O)c2)o1` [#41], the IC50 in test [1] (setting [7]), in test [2] (setting [8]) and in test [3] was ≤ 1 µM in each case.

Take `O=C(O)c1cccc(-c2ccc(/C=C/C(=O)c3cccc(C(=O)/C=C/c4ccc(-c5cccc(C(=O)O)c5)o4)c3)o2)c1` [#45]: the IC50 in test [1] (setting [7]), in test [2] (setting [8]) and in test [3] was 1 to 20 µM each time.
